Results from patent publication US9358262B2, “Use of antioxidant-enriched fermented blueberry extracts in the treatment of diabetes” (priority 2003, dated 2016).

Key:
[1] = system: TNF-α production in LPS/IFN-γ-activated RAW 264.7 gamma NO(−) macrophages; experiment: TNF-α quantification (ELISA) in supernatants of activated macrophages; assay type: cell-based, mouse; conditions: for TNF-α: LPS/IFN-γ control = 100; for Effect on TNF-α production, in words: over the tested concentrations
Description: Cell culture. The mouse monocyte/macrophage cell line RAW 264.7 gamma NO(−) [American Type Culture Collection (ATCC)] was cultured in RPMI-1640 supplemented with 10% (v/v) heat-inactivated FBS, streptomycin ([…]) and penicillin (100 units/ml). All cultures were incubated at 37° C. in a humidified atmosphere with 5% CO2. Cell number was assessed by trypan blue dye exclusion on a Neubauer hemacytometer. Cells were grown to 90% confluence in sterile cell culture flasks and gently detached using a scraper (Fisher Scientific). For phenolic compound treatment tests, cells were cultured in triplicate in Costar flat-bottom cell culture plates (Corning Inc.). Cells were plated at a density of 6×10^5 cells/well in 24-well cell culture plates and grown for 1 h to allow them to attach to the plate. Compounds to be tested were initially dissolved in 10 μl of DMSO, and then RPMI was added to make solutions in a series of concentrations with a dilution factor of 2. […] For berry juices, the final concentrations were 16, 31, 63, 125, 250 and 500 μM GAE, respectively. Cells were supplemented with the test compounds for 1 h before stimulation with 10 ng/ml lipopolysaccharide (LPS) and 10-50 units/ml interferon gamma (IFN-γ). The activated cells were incubated for 24 h and then supernatants were collected to determine nitrite concentration and/or stored at −80° C. for further use. Control cells were grown under identical conditions but were not exposed to the test compounds or LPS/IFN-γ.
Tumour necrosis factor alpha (TNF-α) Quantification. TNF-α in cell supernatants was determined by using an OptELISA set mouse TNF-α (mono/poly) from BD PharMingen. The enzyme-linked immunosorbent assay (ELISA) was carried out as specified by the manufacturer.

[2] = reference phenolic compounds, Fukumoto and Mazza (2000); cited from earlier work

SMILES	TNF-α ([1]; 50 μM)	TNF-α ([1]; 200 μM)	TNF-α ([1]; 400 μM)	TNF-α ([1]; 500 μM)	Effect on TNF-α production, in words [1]	TNF-α ([1]; 100 μM)	TNF-α ([1]; 300 μM)	Antiradical activity [2]	Antiradical power [2]
O=C(/C=C/c1ccc(O)c(O)c1)O[C@@H]1C[C@](O)(C(=O)O)C[C@@H](O)[C@H]1O [Chlorogenic acid]	105.7 (8.4) %	99.2 (7.6) %	126 (31.1) %	115.6 (15.4) %	may induce TNF-α production	–	–	–	–
O=C(O)c1cc(O)c(O)c(O)c1 [Gallic acid]	103.4 (3.2) %	160.3 (8.4) %	213.9 (54.8) %	183.5 (19.8) %	may induce TNF-α production	126.2 (11) %	257.4 (36.7) %	−6.21 (0.60)	12.50
